Values of other authors, collected in patent US10391093B2, “Therapeutic compounds” (Arizona Board of Regents, A Body Corporate of the State of …, priority 2011, dated 2019).

Assays:
hRXRβ = hRXRβ (Homo sapiens, UniProt P28702); conditions: read-out: EC50 for the hRXRβ isoform
hRXR [1] = conditions: Caco-2 cells
hRXR [2] = conditions: Caco-2 cells; remark: listed apart in the source

Sequence of hRXRβ (P28702 whole entry, canonical isoform): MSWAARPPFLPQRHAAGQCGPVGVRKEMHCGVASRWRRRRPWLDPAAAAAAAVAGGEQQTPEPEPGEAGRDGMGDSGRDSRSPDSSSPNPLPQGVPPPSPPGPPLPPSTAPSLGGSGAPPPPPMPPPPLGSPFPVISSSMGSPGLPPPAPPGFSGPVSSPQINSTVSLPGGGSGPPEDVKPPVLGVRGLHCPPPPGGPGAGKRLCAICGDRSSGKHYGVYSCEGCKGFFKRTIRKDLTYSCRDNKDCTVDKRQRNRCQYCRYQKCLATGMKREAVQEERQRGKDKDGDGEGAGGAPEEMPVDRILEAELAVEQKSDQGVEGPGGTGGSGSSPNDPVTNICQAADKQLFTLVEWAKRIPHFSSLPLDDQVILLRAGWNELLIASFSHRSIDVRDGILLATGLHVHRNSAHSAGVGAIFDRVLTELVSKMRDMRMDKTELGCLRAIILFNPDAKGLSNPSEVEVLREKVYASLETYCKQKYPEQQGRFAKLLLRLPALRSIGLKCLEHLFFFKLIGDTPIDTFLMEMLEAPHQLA

SMILES | EC50 (hRXRβ) | Kd (hRXR [1]) | EC50 (hRXR [2])
Cc1cc2c(cc1-c1cc(/C=C/C(=O)O)ccc1O)C(C)(C)CCC2(C)C [CD3254] | ~10 nM | – | –
C=C(c1ccc(C(=O)O)c(F)c1)c1cc2c(cc1C)C(C)(C)CCC2(C)C [Compound 3] | – | 12 nM | 43 nM
